Experimental data taken from patent US20260014232A1, “Pharmaceutical Composition of GLP-1 and GIP Receptor Dual Agonist and Use Thereof” (Jiangsu Hengrui Pharmaceuticals Co., Ltd., priority 2021, published 2026).
Starred links: 1 amine or outer side, 2 acyl side, 3 side chain; linkers in the order of their positions; H or OH if unused. Non-standard residues stand in square brackets, D forms with d. Residues, ends and D or L forms follow the SMILES beside them. Groups on a side chain read outwards from the residue. *: point of attachment. C20 diacid = O=C(O)CCCCCCCCCCCCCCCCCCC(=O)*; γGlu = O=C(O)[C@H](CCC(=O)[*:2])N[*:1]; AEEA = NCCOCCOCC(=O)O; Aib = CC(C)(N)C(=O)O

Test: Food intake of diet-induced-obesity (DIO) mice
Format: in vivo, C57BL/6 mice
Procedure: High-fat food-induced-obesity male C57BL/6 mice (weighing 35-55 g, aged 10-12 weeks, purchased from Shanghai Jiesijie Laboratory Animal Co., Ltd.) were tested. […] According to the experimental design, the body weight of each mouse was measured and recorded on day 0, day 3, day 6, and so on to day 27, the average body weight of each group of mice was calculated, and body weight change curves were plotted by taking the body weight on the first day as the standard. At the end, the fat and other visceral organs of each part of the mice were taken out and weighed, and the viscera/brain ratio for fat in each part of each mouse was calculated. The effect of the drug on the fat was determined by comparing the change in the viscera/brain ratio for fat of different parts of each group of mice.
The food intake of mice in each group was measured daily during the experiment.

CC[C@H](C)[C@H](NC(=O)[C@H](CCCCN)NC(=O)[C@H](CCC(=O)O)NC(=O)[C@H](CCCCNC(=O)COCCOCCNC(=O)COCCOCCNC(=O)CC[C@H](NC(=O)CCCCCCCCCCCCCCCCCCC(=O)O)C(=O)O)NC(=O)[C@H](Cc1ccc(O)cc1)NC(=O)[C@@H](NC(=O)[C@H](CO)NC(=O)[C@H](Cc1ccc(O)cc1)NC(=O)[C@H](CC(=O)O)NC(=O)[C@H](CO)NC(=O)[C@@H](NC(=O)[C@H](Cc1ccccc1)NC(=O)[C@@H](NC(=O)CNC(=O)[C@H](CCC(=O)O)NC(=O)C(C)(C)NC(=O)[C@@H](N)Cc1ccc(O)cc1)[C@@H](C)O)[C@@H](C)O)[C@@H](C)CC)C(=O)N[C@@H](C)C(=O)N[C@@H](C)C(=O)N[C@@H](CCC(N)=O)C(=O)N[C@@H](CCC(=O)O)C(=O)N[C@@H](Cc1ccccc1)C(=O)N[C@H](C(=O)N[C@@H](CC(N)=O)C(=O)N[C@@H](Cc1c[nH]c2ccccc12)C(=O)N[C@@H](CC(C)C)C(=O)N[C@@H](CC(C)C)C(=O)N[C@@H](C)C(=O)NCC(=O)NCC(=O)N1CCC[C@H]1C(=O)N[C@@H](CO)C(=O)N[C@@H](CO)C(=O)NCC(=O)N[C@@H](C)C(=O)N1CCC[C@H]1C(=O)N1CCC[C@H]1C(=O)N1CCC[C@H]1C(=O)N[C@@H](CO)C(N)=O)C(C)C [Compound 18#] (H-Y[Aib]EGTFTSDYSIYK([AEEA-AEEA-γGlu-C20 diacid])EKIAAQEFVNWLLAGGPSSGAPPPS-NH2)
cumulative food intake 28 days after the administration (3 nmol/kg): 58.2 g | cumulative food intake within 5 days after the administration (3 nmol/kg): 7.2 g | daily food intake (3 nmol/kg, day 1, listed as 18 #): 0.6 g | daily food intake (3 nmol/kg, day 1, listed as 18#): 0.6 g | daily food intake (3 nmol/kg, day 2): 1.3 g | daily food intake (3 nmol/kg, day 3): 2 g | daily food intake (3 nmol/kg, day 4): 1.1 g | daily food intake (3 nmol/kg, day 5): 2.2 g | daily food intake (3 nmol/kg, day 6): 2.1 g | daily food intake (3 nmol/kg, day 7): 1.1 g | daily food intake (3 nmol/kg, day 8): 1.6 g | daily food intake (3 nmol/kg, day 9): 2.5 g | daily food intake (3 nmol/kg, day 10): 1.3 g | daily food intake (3 nmol/kg, day 11): 2 g | daily food intake (3 nmol/kg, day 12): 3 g | daily food intake (3 nmol/kg, day 13): 1.8 g | daily food intake (3 nmol/kg, day 14): 2.3 g | daily food intake (3 nmol/kg, day 15): 2.9 g | daily food intake (3 nmol/kg, day 16): 1.5 g | daily food intake (3 nmol/kg, day 17): 2.2 g | daily food intake (3 nmol/kg, day 18): 2.7 g | daily food intake (3 nmol/kg, day 19): 1.7 g | daily food intake (3 nmol/kg, day 20): 2.2 g | daily food intake (3 nmol/kg, day 21): 3.4 g | daily food intake (3 nmol/kg, day 22): 1.8 g | daily food intake (3 nmol/kg, day 23): 2.6 g | daily food intake (3 nmol/kg, day 24): 2.9 g | daily food intake (3 nmol/kg, day 25): 1.8 g | daily food intake (3 nmol/kg, day 26): 2.5 g | daily food intake (3 nmol/kg, day 27): 3.9 g | daily food intake (3 nmol/kg, day 28): 1.3 g | cumulative food intake 28 days after the administration (10 nmol/kg): 46.8 g | cumulative food intake within 5 days after the administration (10 nmol/kg): 3.9 g | daily food intake (10 nmol/kg, day 1, listed as 18 #): 0.3 g | daily food intake (10 nmol/kg, day 1, listed as 18#): 0.3 g | daily food intake (10 nmol/kg, day 2): 0.6 g | daily food intake (10 nmol/kg, day 3): 1.1 g | daily food intake (10 nmol/kg, day 4): 0.7 g | daily food intake (10 nmol/kg, day 5): 1.1 g | daily food intake (10 nmol/kg, day 6): 1.5 g | daily food intake (10 nmol/kg, day 7): 0.8 g | daily food intake (10 nmol/kg, day 8): 1.1 g | daily food intake (10 nmol/kg, day 9): 2 g | daily food intake (10 nmol/kg, day 10): 0.9 g | daily food intake (10 nmol/kg, day 11): 1.8 g | daily food intake (10 nmol/kg, day 12): 2.4 g | daily food intake (10 nmol/kg, day 13): 0.9 g | daily food intake (10 nmol/kg, day 14): 1.7 g | daily food intake (10 nmol/kg, day 15): 3 g | daily food intake (10 nmol/kg, day 16): 1.2 g | daily food intake (10 nmol/kg, day 17): 2.1 g | daily food intake (10 nmol/kg, day 18): 2.9 g | daily food intake (10 nmol/kg, day 19): 1.3 g | daily food intake (10 nmol/kg, day 20): 2 g | daily food intake (10 nmol/kg, day 21): 3.2 g | daily food intake (10 nmol/kg, day 22): 1 g | daily food intake (10 nmol/kg, day 23): 2.3 g | daily food intake (10 nmol/kg, day 24): 2.5 g | daily food intake (10 nmol/kg, day 25): 1.6 g | daily food intake (10 nmol/kg, day 26): 2.2 g | daily food intake (10 nmol/kg, day 27): 3.6 g | daily food intake (10 nmol/kg, day 28): 1 g | cumulative food intake 28 days after the administration (100 nmol/kg): 36.7 g | cumulative food intake within 5 days after the administration (100 nmol/kg): 1.8 g | daily food intake (100 nmol/kg, day 1, listed as 18 #): 0.2 g | daily food intake (100 nmol/kg, day 1, listed as 18#): 0.2 g | daily food intake (100 nmol/kg, day 2): 0.1 g | daily food intake (100 nmol/kg, day 3): 0.4 g | daily food intake (100 nmol/kg, day 4): 0.4 g | daily food intake (100 nmol/kg, day 5): 0.6 g | daily food intake (100 nmol/kg, day 6): 0.7 g | daily food intake (100 nmol/kg, day 7): 0.5 g | daily food intake (100 nmol/kg, day 8): 0.7 g | daily food intake (100 nmol/kg, day 9): 0.9 g | daily food intake (100 nmol/kg, day 10): 0.9 g | daily food intake (100 nmol/kg, day 11): 1.1 g | daily food intake (100 nmol/kg, day 12): 2 g | daily food intake (100 nmol/kg, day 13): 1.3 g | daily food intake (100 nmol/kg, day 14): 1.7 g | daily food intake (100 nmol/kg, day 15): 2 g | daily food intake (100 nmol/kg, day 16): 1 g | daily food intake (100 nmol/kg, day 17): 1.6 g | daily food intake (100 nmol/kg, day 18): 2 g | daily food intake (100 nmol/kg, day 19): 1.4 g | daily food intake (100 nmol/kg, day 20): 1.8 g | daily food intake (100 nmol/kg, day 21): 2.4 g | daily food intake (100 nmol/kg, day 22): 1.4 g | daily food intake (100 nmol/kg, day 23): 2.1 g | daily food intake (100 nmol/kg, day 24): 2.3 g | daily food intake (100 nmol/kg, day 25): 1.5 g | daily food intake (100 nmol/kg, day 26): 1.6 g | daily food intake (100 nmol/kg, day 27): 2.8 g | daily food intake (100 nmol/kg, day 28): 1.2 g
